What all share (assay): NCI anticancer screen, dose series, 48 h
Experiment [1] relates to NCI/ADR-RES.
In experiment [2] the test system is HT-29.
Experiment [3] deals with EKVX.
Experiment [4] has as its system NCI-H460.
Experiment [5] deals with SK-MEL-2.
In experiment [6] the test system is A498.
The test system of experiment [7] is RXF 393.
The test system of experiment [8] is HOP-62.
In experiment [9] the test system is CAKI-1.
For experiment [10], the system named is SF-268.
Experiment [11] relates to U-251.
For experiment [12], the system named is SNB-75.
For experiment [13], the system named is NCI-H522.
Experiment [14] relates to T47D.
Experiment [15] relates to SF-295.
The test system of experiment [16] is OVCAR-4.
In experiment [17] the test system is SK-OV-3.
Experiment [18] concerns HOP-92.
The subject of experiment [19] is DU-145.
Experiment [20] deals with SN12C.

The values below come from ChEMBL document CHEMBL1201862, “PubChem BioAssay data set” (2004).

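Each compound was tested at five concentrations against cells in 96-well plates for 48 hours. Abbreviation: GI50, concentration required for 50% inhibition of growth.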 The source made the active and inactive calls. Rule as the data show it: active = GI50 up to about 1.1 µM and inactive = higher.

Turning to `CN1CCN(c2ccncc2S(=O)(=O)N2CCN(C)CC2)CC1`, the GI50 in experiment [1], in experiment [2], in experiment [3], in experiment [4], in experiment [5] and in experiment [6] was > 100 µM (inactive) in each case. Besides, the GI50 in [7], in [8], in experiment [9], in [10], in experiment [11] and in experiment [12] was > 100 µM (inactive) each time. Also, the GI50 in experiment [13], in experiment [14], in [15], in experiment [16], in [17] and in experiment [18] was > 100 µM (inactive) each time. For the same compound, in [19], the GI50 was > 100 µM (inactive).

As to `COc1ccc(OC)c([N+](=O)[O-])c1-c1nc2sc(Cl)cn2c1/C=N/N=C(N)N`, the GI50 in experiment [1] was > 100 µM (inactive); in experiment [2] it was 15.5 µM (inactive); in experiment [3], 25.6 µM (inactive); in [4], 20.7 µM (inactive); in [5] it was 18.6 µM (inactive); in [6], 14.1 µM (inactive). Further, the GI50 in experiment [7] was 20.1 µM (inactive); in experiment [8], 55.8 µM (inactive); in [9], 17.1 µM (inactive); in [10] it was 20.8 µM (inactive); in experiment [11] it was 24.8 µM (inactive); in experiment [12], 10.1 µM (inactive). Further, the GI50 in experiment [20] is 17.3 µM (inactive); in [13], 16.6 µM (inactive); in [14], 17.8 µM (inactive); in [15] it was 24.9 µM (inactive); in experiment [16], 12.2 µM (inactive); in [18], 10.1 µM (inactive). In experiment [19], the GI50 is 21.8 µM (inactive).

With `NS(=O)(=O)c1nnc(NS(=O)(=O)c2ccc([N+](=O)[O-])cc2)s1`, the GI50 in [1], in [2], in [3], in experiment [4], in experiment [5] and in experiment [6] was > 100 µM (inactive) each time. Besides, the GI50 in [7], in [8], in experiment [9], in experiment [10], in [11] and in experiment [12] was > 100 µM (inactive) each time. Besides, the GI50 is 29.6 µM (inactive) in experiment [13]; 34.9 µM (inactive) in [14]; > 100 µM (inactive) in experiment [15]; > 100 µM (inactive) in [16]; > 100 µM (inactive) in [17]; > 100 µM (inactive) in [18]. In [19], the GI50 was > 100 µM (inactive).

Take `CCOC(=O)Cc1c(C)c2cc(C(=O)c3ccccc3)c(O)cc2oc1=O`: the GI50 in experiment [1] is 26.1 µM (inactive); in [2] it was 39.2 µM (inactive); in experiment [3], 25.5 µM (inactive); in [4] it was 33.3 µM (inactive); in experiment [5], 14.9 µM (inactive); in experiment [6], 25.3 µM (inactive). Also, the GI50 in experiment [7] is 41.1 µM (inactive); in experiment [8], 35.6 µM (inactive); in [9], 30.6 µM (inactive); in experiment [10], 24.9 µM (inactive); in experiment [11], 20.8 µM (inactive); in experiment [12], 30.4 µM (inactive). Further, the GI50 was 31.6 µM (inactive) in experiment [20]; 27 µM (inactive) in experiment [13]; 28.2 µM (inactive) in experiment [14]; 34.8 µM (inactive) in [15]; 31.8 µM (inactive) in experiment [16]; 21.6 µM (inactive) in experiment [18]. Besides, the GI50 in [19] was 30.8 µM (inactive).

For `CCOC(=O)/C(C#N)=C/N(CC)/N=C/c1ccccc1`, the GI50 in experiment [1] is 60.4 µM (inactive); in experiment [2], > 100 µM (inactive); in experiment [3], > 100 µM (inactive); in experiment [4], > 100 µM (inactive); in experiment [5], > 100 µM (inactive); in experiment [6] it was > 100 µM (inactive). Moreover, the GI50 in experiment [7] is 97.3 µM (inactive); in experiment [9], > 100 µM (inactive); in experiment [10], > 100 µM (inactive); in [11], > 100 µM (inactive); in experiment [12], > 100 µM (inactive); in experiment [20] it was > 100 µM (inactive). Besides, the GI50 in experiment [13] is > 100 µM (inactive); in experiment [14], > 100 µM (inactive); in experiment [15], 69.8 µM (inactive); in [16], > 100 µM (inactive); in [17], > 100 µM (inactive); in [18], > 100 µM (inactive). Moreover, in [19], the GI50 was > 100 µM (inactive).

In the case of `CCOC(=O)c1sc2nc(SC)nc3c2c1NCN3c1ccc(F)c(F)c1`, the GI50 in experiment [1] is 9.98 µM (inactive); in [2], 29.8 µM (inactive); in experiment [3], 32.4 µM (inactive); in [4] it was 8.63 µM (inactive); in [5], > 71 µM (inactive); in experiment [6], 12.6 µM (inactive). In addition, the GI50 was 6.43 µM (inactive) in experiment [7]; 12.1 µM (inactive) in experiment [8]; > 52.5 µM (inactive) in [9]; 9.84 µM (inactive) in experiment [10]; 9.27 µM (inactive) in experiment [11]; 30.5 µM (inactive) in experiment [20]. Besides, the GI50 is 21.1 µM (inactive) in [13]; 29.4 µM (inactive) in [14]; 24.2 µM (inactive) in experiment [15]; 4.76 µM (inactive) in experiment [16]; 19.2 µM (inactive) in experiment [17]; 18.5 µM (inactive) in [18]. Further, the GI50 in experiment [19] is 8.43 µM (inactive).

On to `COc1cc(S(=O)(=O)Nc2ccc(-c3csc(N4C(=O)C(C)SC4c4cccs4)n3)cc2)ccc1Cl` (configuration not stated), for which the GI50 was > 100 µM (inactive) in experiment [1]; 30.5 µM (inactive) in experiment [2]; 57.5 µM (inactive) in [3]; 6.49 µM (inactive) in experiment [5]; > 100 µM (inactive) in [6]; 11.1 µM (inactive) in [7]. In addition, the GI50 in [8] was 0.558 µM (active); in experiment [9], 50.5 µM (inactive); in experiment [10] it was 22.5 µM (inactive); in experiment [20], 39.3 µM (inactive); in experiment [13], 20.6 µM (inactive); in experiment [14], 10.8 µM (inactive). Moreover, the GI50 in experiment [15] is > 100 µM (inactive); in [17] it was 0.481 µM (active); in [18], 20.1 µM (inactive); in experiment [19] it was 20.7 µM (inactive).

Turning to `O=C1Cc2c([nH]c3ccc(Br)cc23)-c2cc(O)c(O)cc2N1`, the GI50 in [1], in experiment [3], in [4], in experiment [5], in experiment [6] and in experiment [7] was > 100 µM (inactive) throughout. Besides, the GI50 in experiment [8], in experiment [9], in experiment [10], in experiment [11], in experiment [12] and in experiment [20] was > 100 µM (inactive) each time. Also, the GI50 in [13], in experiment [14], in experiment [15], in experiment [16], in experiment [17] and in experiment [18] was > 100 µM (inactive) throughout. Besides, in experiment [19], the GI50 is > 100 µM (inactive).

Consider `O=C(NC1CCN(Cc2ccccc2)CC1)c1cccc(I)c1`, for which the GI50 in experiment [1] is 31.8 µM (inactive); in experiment [2], 19.5 µM (inactive); in experiment [3], 45.2 µM (inactive); in [4], 22 µM (inactive); in experiment [5] it was 18.7 µM (inactive); in experiment [6], 46.6 µM (inactive). For the same compound, the GI50 in [7] is 51.8 µM (inactive); in experiment [8], 15.8 µM (inactive); in experiment [9], 19.7 µM (inactive); in experiment [10], 50.9 µM (inactive); in [11] it was 23 µM (inactive); in experiment [20], 60.5 µM (inactive). The GI50 in experiment [13] is 17.8 µM (inactive); in [14], 24.1 µM (inactive); in [15], 18.3 µM (inactive); in experiment [16], 58.2 µM (inactive); in experiment [17] it was 22.2 µM (inactive); in experiment [18], 22 µM (inactive). Also, the GI50 in [19] is 72.3 µM (inactive).

For the compound `COc1ccc2c(c1OC)C(=O)O[C@@H]2[C@H]1c2c(cc3c(c2OC)OCO3)CCN1C` [NOSCAPINE], the GI50 is 43.8 µM (inactive) in [1]; 40 µM (inactive) in [2]; 39.9 µM (inactive) in experiment [4]; 34.1 µM (inactive) in [5]; > 100 µM (inactive) in [6]; > 100 µM (inactive) in [7]. In addition, the GI50 is 71.4 µM (inactive) in [8]; 63 µM (inactive) in experiment [9]; 71.8 µM (inactive) in [10]; 41 µM (inactive) in [11]; 4.86 µM (inactive) in experiment [12]; > 100 µM (inactive) in [20]. Moreover, the GI50 in [13] was 30.3 µM (inactive); in [14] it was > 100 µM (inactive); in [15], 30.3 µM (inactive); in [16], > 100 µM (inactive); in experiment [17] it was 73.1 µM (inactive); in [18], > 100 µM (inactive). Besides, in experiment [19], the GI50 is > 100 µM (inactive).
